Measurements published in ChEMBL document CHEMBL1201862, “PubChem BioAssay data set” (2004).
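Interpolation was linear, between the two tested concentrations surrounding the appropriate level; five concentrations were tested over 48 hours in 96-well plates. GI50: concentration for 50% inhibition of growth.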 Calls of active or inactive are those of the source. No stated cut-off is given here; in the data, active = GI50 up to about 1.1 µM and inactive = higher.

Legend:
Experiment in all cases: growth of human tumour cells (NCI), 48 h
[1] = test system: EKVX
[2] = test system: HOP-92
[3] = test system: Hs-578T
[4] = test system: DU-145
[5] = test system: OVCAR-8
[6] = test system: A498
[7] = test system: NCI/ADR-RES
[8] = test system: BT-549
[9] = test system: SK-OV-3
[10] = test system: 786-0
[11] = test system: RPMI-8226
[12] = test system: HT-29
[13] = test system: UACC-257
[14] = test system: HCT-15
[15] = test system: RXF 393
[16] = test system: MDA-N
[17] = test system: MCF7
[18] = test system: U-251
[19] = test system: NCI-H226

| Structure (SMILES) | GI50 [1] | GI50 [2] | GI50 [3] | GI50 [4] | GI50 [5] | GI50 [6] | GI50 [7] | GI50 [8] | GI50 [9] | GI50 [10] | GI50 [11] | GI50 [12] | GI50 [13] | GI50 [14] [µM] | GI50 [15] | GI50 [16] | GI50 [17] | GI50 [18] | GI50 [19] |
| --- | --- | --- | --- | --- | --- | --- | --- | --- | --- | --- | --- | --- | --- | --- | --- | --- | --- | --- | --- |
| CC(=O)Oc1ccc(/C=C/C(=O)OCCCOC(=O)/C=C/c2ccc(OC(C)=O)c(OC(C)=O)c2)cc1OC(C)=O | > 100 µM (inactive) | > 100 µM (inactive) | > 100 µM (inactive) | > 100 µM (inactive) | > 100 µM (inactive) | > 100 µM (inactive) | > 100 µM (inactive) | > 100 µM (inactive) | > 100 µM (inactive) | 93.1 µM (inactive) | > 100 µM (inactive) | > 100 µM (inactive) | > 100 µM (inactive) | > 100 | > 100 µM (inactive) | > 100 µM (inactive) | > 100 µM (inactive) | > 100 µM (inactive) | – |
| CCOC(=O)c1cnc2[nH]ccn2c1=O | > 10 µM (inactive) | > 10 µM (inactive) | > 10 µM (inactive) | > 10 µM (inactive) | > 10 µM (inactive) | 5.48 µM (inactive) | > 10 µM (inactive) | > 10 µM (inactive) | > 10 µM (inactive) | > 10 µM (inactive) | > 10 µM (inactive) | > 10 µM (inactive) | > 10 µM (inactive) | > 10 | > 10 µM (inactive) | > 10 µM (inactive) | > 10 µM (inactive) | > 10 µM (inactive) | > 10 µM (inactive) |
| CCC(=O)Nc1cccc(/N=C/c2ccc(OC(=O)/C=C\c3ccccc3)cc2)c1 | 52.1 µM (inactive) | 35.2 µM (inactive) | 32.5 µM (inactive) | 15.5 µM (inactive) | > 75 µM (inactive) | > 75 µM (inactive) | > 75 µM (inactive) | 37 µM (inactive) | > 75 µM (inactive) | 65.9 µM (inactive) | 43.8 µM (inactive) | 36.3 µM (inactive) | > 75 µM (inactive) | 35.8 | 12.2 µM (inactive) | 58.6 µM (inactive) | 25.2 µM (inactive) | – | 33.6 µM (inactive) |
| CCCCc1ccc(Nc2nc(OC)c3ncn(C4CC(O)C(CO)O4)c3n2)cc1 (stereo not given) | 1.58 µM (inactive) | 1.97 µM (inactive) | 18.4 µM (inactive) | 19.6 µM (inactive) | 16.4 µM (inactive) | 19.7 µM (inactive) | 27 µM (inactive) | 18.9 µM (inactive) | 13.2 µM (inactive) | 16.4 µM (inactive) | 27.2 µM (inactive) | 19.2 µM (inactive) | 17.7 µM (inactive) | 13.9 | 14.8 µM (inactive) | 15.5 µM (inactive) | 14.2 µM (inactive) | 20.7 µM (inactive) | 19.4 µM (inactive) |
| O=C(c1ccccc1Cl)n1oc2ccccc2c1=O | > 100 µM (inactive) | 25.2 µM (inactive) | > 100 µM (inactive) | > 100 µM (inactive) | > 100 µM (inactive) | > 100 µM (inactive) | > 100 µM (inactive) | 84.5 µM (inactive) | > 100 µM (inactive) | 77.1 µM (inactive) | 28.1 µM (inactive) | 60.4 µM (inactive) | 86.7 µM (inactive) | 85.5 | 68.7 µM (inactive) | > 100 µM (inactive) | 51.1 µM (inactive) | > 100 µM (inactive) | 67 µM (inactive) |
| O=C(O)CSc1ccn(Cc2ccccc2)c1 | > 100 µM (inactive) | > 100 µM (inactive) | > 100 µM (inactive) | > 100 µM (inactive) | > 100 µM (inactive) | > 100 µM (inactive) | > 100 µM (inactive) | > 100 µM (inactive) | > 100 µM (inactive) | > 100 µM (inactive) | > 100 µM (inactive) | > 100 µM (inactive) | > 100 µM (inactive) | > 100 | > 100 µM (inactive) | > 100 µM (inactive) | > 100 µM (inactive) | > 100 µM (inactive) | > 100 µM (inactive) |
| Cn1c2ccccc2c2c(=O)[nH]c(=O)[nH]c21 | > 100 µM (inactive) | > 100 µM (inactive) | > 100 µM (inactive) | > 100 µM (inactive) | > 100 µM (inactive) | > 100 µM (inactive) | > 100 µM (inactive) | > 100 µM (inactive) | > 100 µM (inactive) | > 100 µM (inactive) | > 100 µM (inactive) | > 100 µM (inactive) | > 100 µM (inactive) | > 100 | > 100 µM (inactive) | > 100 µM (inactive) | > 100 µM (inactive) | > 100 µM (inactive) | > 100 µM (inactive) |
| CCOC(=O)/C=C(\C(=O)OCC)n1ccc(=O)n(Cc2cn(COCCOC(C)=O)nn2)c1=O | 19.9 µM (inactive) | 19 µM (inactive) | 26.5 µM (inactive) | 38.8 µM (inactive) | 16.3 µM (inactive) | > 54.3 µM (inactive) | 20.3 µM (inactive) | 17.8 µM (inactive) | > 100 µM (inactive) | 15.7 µM (inactive) | 22.8 µM (inactive) | 16.2 µM (inactive) | 22 µM (inactive) | 18.9 | 15.7 µM (inactive) | 35.2 µM (inactive) | 17.1 µM (inactive) | 18.9 µM (inactive) | 7.67 µM (inactive) |
| COC(=O)CN1c2nc(C#N)c(C#N)nc2N(CC(=O)OC)c2nc(C#N)c(C#N)nc21 | 4.47 µM (inactive) | 1.87 µM (inactive) | 19.6 µM (inactive) | 1.43 µM (inactive) | 2.37 µM (inactive) | 15.3 µM (inactive) | 18.7 µM (inactive) | 4.78 µM (inactive) | 15.3 µM (inactive) | 2.09 µM (inactive) | 1.87 µM (inactive) | 3.02 µM (inactive) | 2.72 µM (inactive) | 3.05 | 2.91 µM (inactive) | 3.53 µM (inactive) | 3.13 µM (inactive) | 6.81 µM (inactive) | 38.8 µM (inactive) |
| O=C1CC(c2cccc([N+](=O)[O-])c2)C2(C(=O)NC(=O)NC2=O)C(c2cccc([N+](=O)[O-])c2)C1 (stereo not given) | – | 36.5 µM (inactive) | > 100 µM (inactive) | 64.4 µM (inactive) | > 100 µM (inactive) | > 100 µM (inactive) | > 100 µM (inactive) | > 100 µM (inactive) | > 100 µM (inactive) | > 100 µM (inactive) | 31.5 µM (inactive) | 75.9 µM (inactive) | > 100 µM (inactive) | 70.5 | 13.6 µM (inactive) | > 100 µM (inactive) | 17.3 µM (inactive) | > 100 µM (inactive) | 58.2 µM (inactive) |
| COc1ccc(OC)c(C[P+](c2ccccc2)(c2ccccc2)c2ccccc2)c1 | 10.6 µM (inactive) | 0.792 µM (active) | 2.01 µM (inactive) | 3.27 µM (inactive) | 2.08 µM (inactive) | 4.36 µM (inactive) | > 100 µM (inactive) | 2.06 µM (inactive) | 2.58 µM (inactive) | 3.38 µM (inactive) | 0.33 µM (active) | 0.45 µM (active) | 0.656 µM (active) | 18.5 | 4.68 µM (inactive) | 0.753 µM (active) | 2.11 µM (inactive) | – | 4.84 µM (inactive) |
